{"source": "patent US20220184071A1", "about": "“GEPOTIDACIN FOR USE IN THE TREATMENT OF BACTERIAL URINARY TRACT INFECTIONS” (GlaxoSmithKline Intellectual Property Development Limited, priority 2019, published 2022)", "key": {"E. coli [1]": {"system": "E. coli", "experiment": "MIC by CLSI agar dilution, Example 1 Method 2", "assay_type": "cell-based, Escherichia coli", "protocol": "(§1) Antimicrobial activity was determined in a second study by […] using the CLSI recommended procedure in serial two-fold dilutions and the minimum inhibitory concentration (MIC) was determined as the lowest concentration of the compound that inhibited visible growth.\n(§2) MICs were determined according to CLSI agar dilution guidelines."}, "N. gonorrhoeae": {"system": "N. gonorrhoeae", "experiment": "MIC by CLSI agar dilution, Example 1 Method 2", "assay_type": "cell-based, Neisseria gonorrhoeae", "conditions": "n = 95", "protocol": "as §1, §2"}, "[2]": {"experiment": "Phase IIa clinical efficacy (ITT population)", "assay_type": "in vivo, human", "protocol": "This phase IIa single center study evaluated the safety, tolerability, pharmacokinetics, and efficacy of oral gepotidacin 1500 mg BID for 5 days in female subjects with acute cystitis. Clean catch mid-stream urine specimens were obtained for quantitative culture by standard methods. Urine samples were taken from all participants pre-treatment (baseline) and at all post-baseline visits. All urine samples were sent to a central laboratory (PPD Global Clinical Laboratories, Highland Heights, Ky., USA) for Gram stain, quantitative culture, pathogen identification and susceptibility testing. See FIG. 1 for participant disposition and study outline.\nSerial blood and urine PK sampling were performed for the first dose of study treatment on Day 1 and for the time-matched dose on Day 4. Participants took all doses of gepotidacin with food and remained in the clinic to complete a total of 10 doses. Participants were instructed to return for the TOC (Day 10 to 13) and Follow-up (Day 28±3) Visits.\nThe mean total clinical symptom score in the ITT Population at Baseline was 7.9 (range: 4 to 12) for 4 categories of acute cystitis symptoms consisting of dysuria, frequency, urgency, and lower abdominal or suprapubic pain (score range for each category was 0 to 3). Of the 22 participants enrolled in this Phase IIa study, 19 (86%) and 18 participants (82%) achieved a clinical response of clinical success at the TOC and Follow-up Visits, respectively. […] Lower abdominal or suprapubic pain at Baseline was the most variable symptom category with half of the participants reporting low scores of 0 (27%) or 1 (23%) and the other half of participants reporting high scores of 2 (41%) or 3 (9%). For the other symptom categories, the majority of participants scored a 2."}, "E. coli [3]": {"system": "E. coli", "experiment": "MIC of the isolates used in the murine models", "assay_type": "cell-based, Escherichia coli"}, "Bilophila wadsworthia": {"system": "Bilophila wadsworthia", "experiment": "MIC by CLSI agar dilution, Example 6 Method 1", "assay_type": "cell-based", "conditions": "26 isolates, read-out: Gepotidacin MIC90", "protocol": "(§3) Antimicrobial activity was determined by agar dilution using the Clinical and Laboratory Standards Institute (CLSI) recommended procedure.\n(§4) The compounds were tested in serial two-fold dilutions and the minimum inhibitory concentration (MIC) was determined as the lowest concentration of the compound that inhibited visible growth. Gepotidacin was tested against 333 gram-negative anaerobic and 203 gram-positive anaerobic isolates collected from clinical samples in North America and Europe from 2000 to 2017; the majority collected from 2013 to 2016.\n(§5) Ceftriaxone, clindamycin, imipenem, metronidazole, moxifloxacin and piperacillin/tazobactam were included as comparators."}, "[4]": {"system": "all the gram-negative anaerobe organisms combined", "experiment": "MIC by CLSI agar dilution, Example 6 Method 1", "assay_type": "cell-based", "conditions": "all gram-negative anaerobes combined; read-out: overall MIC90", "protocol": "as §3, §4, §5"}, "[5]": {"system": "gram-positive anaerobe organisms combined", "experiment": "MIC by CLSI agar dilution, Example 6 Method 1", "assay_type": "cell-based", "conditions": "gram-positive anaerobes combined; read-out: overall MIC90", "protocol": "as §3, §4, §5"}, "Bacteroides caccae": {"system": "Bacteroides caccae", "experiment": "MIC by broth microdilution, drug-resistant isolates", "assay_type": "cell-based", "conditions": "1 isolate", "protocol": "(§6) Additional analysis was performed from the results of the study described in Method 1 above, to determine the in vitro activity of gepotidacin against gram-negative and gram-positive anaerobic organisms with resistance to ceftriaxone, clindamycin, imipenem, metronidazole, moxifloxacin and piperacillin/tazobactam."}, "Bacteroides fragilis": {"system": "Bacteroides fragilis", "experiment": "MIC by broth microdilution, drug-resistant isolates", "assay_type": "cell-based", "protocol": "as §6"}, "Bacteroides ovatus": {"system": "Bacteroides ovatus", "experiment": "MIC by broth microdilution, drug-resistant isolates", "assay_type": "cell-based", "protocol": "as §6"}, "Bacteroides spp": {"system": "Bacteroides spp", "experiment": "MIC by broth microdilution, drug-resistant isolates", "assay_type": "cell-based", "protocol": "as §6"}, "Bacteroides stercoris": {"system": "Bacteroides stercoris", "experiment": "MIC by broth microdilution, drug-resistant isolates", "assay_type": "cell-based", "conditions": "ceftriaxone R, 2 isolates", "protocol": "as §6"}, "[6]": {"system": "Bacteroides thetaiotaomicron", "experiment": "MIC by broth microdilution, drug-resistant isolates", "assay_type": "cell-based", "protocol": "as §6"}, "Bacteroides uniformis": {"system": "Bacteroides uniformis", "experiment": "MIC by broth microdilution, drug-resistant isolates", "assay_type": "cell-based", "protocol": "as §6"}, "Bacteroides vulgatus": {"system": "Bacteroides vulgatus", "experiment": "MIC by broth microdilution, drug-resistant isolates", "assay_type": "cell-based", "protocol": "as §6"}}}
{"compound": "O=c1ccc2ncc(=O)n3c2n1C[C@H]3CN1CCC(NCc2cc3c(cn2)OCCC3)CC1", "note": "[gepotidacin, (2R)-2-({4-[(3,4-dihydro-2H-pyrano[2,3-c]pyridin-6-ylmethyl)amino]-1-piperidinyl}methyl)-1,2-dihydro-3H,8H-2a,5,8a-triazaacenaphthylene-3,8-dione]", "values": [{"measurement": "MICs ranged", "setting": "E. coli [1]; 254 isolates", "value": "≤0.06 to 64", "unit": "mg/L"}, {"measurement": "% of the tested isolates inhibited at ≤8 mg/L", "setting": "E. coli [1]; 254 isolates, enriched for drug resistance", "value": 96.1, "unit": "%"}, {"measurement": "MIC50", "setting": "E. coli [1]; Escherichia coli, n = 254", "value": 2, "unit": "µg/mL"}, {"measurement": "MIC90", "setting": "E. coli [1]; Escherichia coli, n = 254", "value": 8, "unit": "µg/mL"}, {"measurement": "% of isolates inhibited at ≤8 mg/L", "setting": "E. coli [1]; KPC producing E. coli", "value": 94.6, "unit": "%"}, {"measurement": "% of isolates inhibited at ≤8 mg/L", "setting": "E. coli [1]; NDM producing E. coli", "value": 100, "unit": "%"}, {"measurement": "% of isolates inhibited at ≤8 mg/L", "setting": "E. coli [1]; OXA-48-like producing E. coli", "value": 92.1, "unit": "%"}, {"measurement": "Effect of levofloxacin non-susceptibility or QRDR substitutions in GyrA and ParC on activity", "setting": "E. coli [1]; QRDR data for 188 of 254 isolates", "value": "unaffected"}, {"measurement": "Number of Isolates at Gepotidacin MIC 0.5 mg/L", "setting": "E. coli [1]; n = 254", "value": 22}, {"measurement": "Number of Isolates at Gepotidacin MIC 1 mg/L", "setting": "E. coli [1]; n = 254", "value": 56}, {"measurement": "Number of Isolates at Gepotidacin MIC 2 mg/L", "setting": "E. coli [1]; n = 254", "value": 92}, {"measurement": "Number of Isolates at Gepotidacin MIC 4 mg/L", "setting": "E. coli [1]; n = 254", "value": 37}, {"measurement": "Number of Isolates at Gepotidacin MIC 8 mg/L", "setting": "E. coli [1]; n = 254", "value": 33}, {"measurement": "Number of Isolates at Gepotidacin MIC ≤0.25 mg/L", "setting": "E. coli [1]; n = 254", "value": 4}, {"measurement": "Number of Isolates at Gepotidacin MIC ≥16 mg/L", "setting": "E. coli [1]; n = 254", "value": 10}, {"measurement": "MIC50", "setting": "N. gonorrhoeae; Neisseria gonorrhoeae", "value": 0.25, "unit": "µg/mL"}, {"measurement": "MIC90", "setting": "N. gonorrhoeae; Neisseria gonorrhoeae", "value": 1, "unit": "µg/mL"}, {"measurement": "Number of Isolates at Gepotidacin MIC 0.5 mg/L", "setting": "N. gonorrhoeae", "value": 6}, {"measurement": "Number of Isolates at Gepotidacin MIC 1 mg/L", "setting": "N. gonorrhoeae", "value": 6}, {"measurement": "Number of Isolates at Gepotidacin MIC 2 mg/L", "setting": "N. gonorrhoeae", "value": 4}, {"measurement": "Number of Isolates at Gepotidacin MIC ≤0.25 mg/L", "setting": "N. gonorrhoeae", "value": 79}, {"measurement": "participants with clinical response of clinical success", "setting": "[2]; TOC Visit, 22 participants", "value": "19 (86%)"}, {"measurement": "participants with symptom resolution", "setting": "[2]; at Follow-up", "value": 20, "unit": "participants"}, {"measurement": "participants with symptom resolution (clinical signs and symptom score of 0)", "setting": "[2]; at TOC", "value": 19, "unit": "participants"}, {"measurement": "time to significant improvement of clinical symptoms (all subjects)", "setting": "[2]; dysuria, frequency, urgency, lower abdominal pain", "value": "24 to 48", "unit": "h"}, {"measurement": "range of MICs", "setting": "E. coli [3]; 5 isolates: ALL, 997577, ATCC25922, IR5, NCTC13441", "value": "1 to 4", "unit": "µg/mL"}, {"measurement": "Gepotidacin MIC", "setting": "E. coli [3]; Strain 997577", "value": 2, "unit": "µg/mL"}, {"measurement": "Gepotidacin MIC", "setting": "E. coli [3]; Strain ALL", "value": 4, "unit": "µg/mL"}, {"measurement": "Gepotidacin MIC", "setting": "E. coli [3]; Strain ATCC25922", "value": 1, "unit": "µg/mL"}, {"measurement": "Gepotidacin MIC", "setting": "E. coli [3]; Strain IR5", "value": 4, "unit": "µg/mL"}, {"measurement": "Gepotidacin MIC", "setting": "E. coli [3]; Strain NCTC13441", "value": 2, "unit": "µg/mL"}, {"measurement": "MIC90", "setting": "Bilophila wadsworthia", "value": 0.5, "unit": "µg/mL"}, {"measurement": "MIC90", "setting": "[4]", "value": 4, "unit": "µg/mL"}, {"measurement": "MIC90", "setting": "[5]", "value": 2, "unit": "µg/mL"}, {"measurement": "Gepotidacin MIC range", "setting": "Bacteroides caccae; ceftriaxone R", "value": 0.25, "unit": "µg/mL"}, {"measurement": "Gepotidacin MIC range", "setting": "Bacteroides caccae; clindamycin R", "value": 4, "unit": "µg/mL"}, {"measurement": "Gepotidacin MIC range", "setting": "Bacteroides caccae; moxifloxacin R", "value": 0.25, "unit": "µg/mL"}, {"measurement": "Gepotidacin MIC range", "setting": "Bacteroides fragilis; ceftriaxone R, 24 isolates", "value": "0.25 to 16", "unit": "µg/mL"}, {"measurement": "Gepotidacin MIC range", "setting": "Bacteroides fragilis; clindamycin R, 23 isolates", "value": "0.06 to 16", "unit": "µg/mL"}, {"measurement": "Gepotidacin MIC range", "setting": "Bacteroides fragilis; imipenem R, 2 isolates", "value": "1 to 4", "unit": "µg/mL"}, {"measurement": "Gepotidacin MIC range", "setting": "Bacteroides fragilis; moxifloxacin R, 20 isolates", "value": "0.25 to 8", "unit": "µg/mL"}, {"measurement": "Gepotidacin MIC range", "setting": "Bacteroides fragilis; pip/tazo R, 2 isolates", "value": "1 to 4", "unit": "µg/mL"}, {"measurement": "Gepotidacin MIC range", "setting": "Bacteroides ovatus; ceftriaxone R, 5 isolates", "value": "0.5 to 2", "unit": "µg/mL"}, {"measurement": "Gepotidacin MIC range", "setting": "Bacteroides ovatus; clindamycin R, 5 isolates", "value": "0.25 to 4", "unit": "µg/mL"}, {"measurement": "Gepotidacin MIC range", "setting": "Bacteroides ovatus; moxifloxacin R, 3 isolates", "value": "0.5 to 4", "unit": "µg/mL"}, {"measurement": "Gepotidacin MIC range", "setting": "Bacteroides spp; ceftriaxone R, 61 isolates", "value": "≤0.015 to 6", "unit": "µg/mL"}, {"measurement": "Gepotidacin MIC range", "setting": "Bacteroides spp; clindamycin R, 51 isolates", "value": "0.06 to 16", "unit": "µg/mL"}, {"measurement": "Gepotidacin MIC range", "setting": "Bacteroides spp; moxifloxacin R, 35 isolates", "value": "0.25 to 8", "unit": "µg/mL"}, {"measurement": "Gepotidacin MIC range", "setting": "Bacteroides stercoris", "value": "≤0.015 to 0.5", "unit": "µg/mL"}, {"measurement": "Gepotidacin MIC range", "setting": "[6]; ceftriaxone R, 20 isolates", "value": "0.5 to 8", "unit": "µg/mL"}, {"measurement": "Gepotidacin MIC range", "setting": "[6]; clindamycin R, 18 isolates", "value": "0.5 to 8", "unit": "µg/mL"}, {"measurement": "Gepotidacin MIC range", "setting": "[6]; moxifloxacin R, 7 isolates", "value": "0.5 to 8", "unit": "µg/mL"}, {"measurement": "Gepotidacin MIC range", "setting": "Bacteroides uniformis; ceftriaxone R, 2 isolates", "value": "0.5 to 2", "unit": "µg/mL"}, {"measurement": "Gepotidacin MIC range", "setting": "Bacteroides uniformis; moxifloxacin R, 1 isolate", "value": 0.5, "unit": "µg/mL"}, {"measurement": "Gepotidacin MIC range", "setting": "Bacteroides vulgatus; ceftriaxone R, 7 isolates", "value": "0.06 to 4", "unit": "µg/mL"}, {"measurement": "Gepotidacin MIC range", "setting": "Bacteroides vulgatus; clindamycin R, 4 isolates", "value": "0.06 to 0.5", "unit": "µg/mL"}, {"measurement": "Gepotidacin MIC range", "setting": "Bacteroides vulgatus; moxifloxacin R, 3 isolates", "value": "0.25 to 4", "unit": "µg/mL"}]}
